Laboratory results reported in patent US11839210B1, “Plant growth promoter with strigolactones regulation activities” (King Abdullah University of Science and Technology, priority 2017, dated 2023).

How the values were obtained:
[1] = tested on: SL biosynthesis genes (D27, CCD7, CCD8 and CO); assay: qRT-PCR of transcript levels of SL biosynthesis genes (all four together) in rice roots; type: in vivo; conditions: Shiokari wild-type and d3 seedlings, phosphate-starved, 5 μM, 6 h
Experimental: For the analysis of SL transcript levels in the zas mutant, one week-old seedlings were grown hydroponically in half-strength modified Hoagland nutrient solution with K2HPO4·2H2O (+Pi) and without K2HPO4·2H2O (−Pi) for 7 days. Seedlings were further treated with zaxinone for 6 h and tissues were collected.
(§1) Total RNA was extracted from the roots and shoots using a Qiagen Plant RNeasy Kit according to the manufacturer's instruction. cDNA was synthesized from 1 μg of total RNA using iScript cDNA Synthesis Kit (BIO-RAD Laboratories, Inc, 2000 Alfred Nobel Drive, Hercules, CA, Cat. No #170-8890) according to instructions in the user manual. For mycorrhizal samples, single-strand cDNA was synthesized from 1 μg of total RNA using Super-Script II (Invitrogen) according to instructions in the user manual. Primers used for real-time quantitative RT-PCR (qRT-PCR) analysis are listed below in Table 3. qRT-PCR was performed using SYBR Green Master Mix (Applied Biosystems; www.lifetechnologies.com) in a StepOnePlus (Life Technologies, Carlsbad, CA, USA). For mycorrhizal samples, qRT-PCR was performed using a Rotor-Gene Q 5plex HRM Platform (Qiagen). The 2-ΔCt method was used to calculate the relative gene expression levels and rice Ubiquitin (OsUBQ or OsRubQ1) gene was used as the internal control to normalize target gene expression.
Two week-old seedlings were grown for another one week in −Pi solution and then transferred to new vials containing fresh −Pi solution with and without the indicated concentrations (2.5 μM, 5 μM, 10 μM and 20 μM) of zaxinone for 6 h and samples were collected. SL biosynthetic genes expression for D27 (FIG. 19A), CCD7 […], CCD8 (FIG. 19C), and CO (Carlactone oxidase-FIG. 19D) in WT and zas mutants. […] The expression levels were detected by quantitative RT-PCR. Ubiquitin was used as a reference gene and the expression levels in the WT-mock were normalized to 1. Bars represent mean±SD (n=3). Different letters above each bar denote significant difference following a One-way ANOVA test (P<0.05).
Transcript levels of SL biosynthesis genes, D27 (FIG. 24C), CCD7/D17 (FIG. 24D), CCD8/D10 (FIG. 24E) and OsCO (Carlactone oxidase—FIG. 24F) in root tissues were collected for SL quantification. The expression levels were detected by qRT-PCR. Ubiquitin was used as a reference gene and the expression levels in the WT-mock were normalized to 1. Two week-old seedlings were grown for another one week in −Pi solution and then transferred to new vials containing fresh −Pi solution with and without 5 μM of zaxinone and GR24 for 6 h and samples were collected. Bars represent mean±SD (n=3). Different letters above each bar denote significant difference following a One-way ANOVA test (P<0.05).

[2] = tested on: Zaxinone Synthase (ZAS); assay: qRT-PCR of ZAS transcript levels in rice after zaxinone or GR24; type: in vivo, rice (Nipponbare); conditions: WT rice, phosphate starvation, 5 μM, 6 h
Experimental: as §1
FIGS. 14A-14C show transcript levels of Zaxinone Synthase (ZAS) in wild type roots and shoots. In FIG. 14A, the relative expression levels of ZAS under normal (+Pi) and phosphate-starved (−Pi) conditions in Nipponbare wild-type (WT) roots and shoots is seen. The expression levels in the WT root were normalized to 1. In FIG. 14B, the relative expression levels of ZAS under −Pi conditions with 5 μM of Zaxinone and GR24 treatment in WT rice root and shoot is seen. Three weeks-old seedlings were transferred to new hydroponic pots containing fresh media with or without chemicals for 6 h. The expression levels in the WT-mock were normalized to 1 and the expression levels were detected by qRT-PCR. Ubiquitin was used as a reference gene. Bars represent mean±SD (n=3). Mock treatment (0.1% acetone). Different letters above each bar denote significant difference following a One-way ANOVA test (P<0.05).

CC1=C[C@H](O/C=C2/C(=O)O[C@@H]3c4ccccc4C[C@H]23)OC1=O [GR24, reference compound]
SL transcript levels in roots [1]: affected the transcript levels only in wild-type seedlings | ZAS transcript levels in root tissues [2]: negatively impacted
